Results from patent US9604996B2 (Bayer Pharma Aktiengesellschaft, priority 2013, dated 2017).

Target: T1, human adenosine A2b receptor (Homo sapiens, UniProt P29275)
T1 construct: expressed in transfected cells; host or cells: CHO-K1 (Chinese Hamster Ovary) with CRE-luciferase reporter
T1 sequence (P29275 1-332): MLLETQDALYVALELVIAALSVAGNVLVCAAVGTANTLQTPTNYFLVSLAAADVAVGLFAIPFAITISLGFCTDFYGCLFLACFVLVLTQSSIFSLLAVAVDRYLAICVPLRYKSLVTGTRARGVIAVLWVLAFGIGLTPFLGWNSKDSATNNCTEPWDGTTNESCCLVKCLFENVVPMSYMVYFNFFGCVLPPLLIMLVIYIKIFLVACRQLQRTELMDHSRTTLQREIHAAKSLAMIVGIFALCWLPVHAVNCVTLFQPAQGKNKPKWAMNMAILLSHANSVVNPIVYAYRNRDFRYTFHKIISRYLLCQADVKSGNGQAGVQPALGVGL
Experiment: Cellular reporter gene (CRE-luciferase) A2b receptor antagonist assay in recombinant CHO-K1 cells stimulated with NECA
Assay type: cell-based
Settings: recombinant CHO-K1 cell line, co-incubation with EC50 concentration of NECA, 3 hours, in some cases means, rounded to two significant digits
Summary of the method: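 CHO-K1 cells expressing human A2b receptor with a CRE-driven firefly luciferase reporter, co-incubated with test compound and NECA at its same-day EC50 concentration. Luminescence read 3 hours after NECA addition.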

Row | SMILES | IC50 [µM]
1 | CCc1c(C(=O)N2CCC(O)CC2)sc2c1c(=O)n(CC)c(=O)n2CCC(F)(F)F [Example 87, 3,5-Diethyl-6-[(4-hydroxypiperidin-1-yl)carbonyl]-1-(3,3,3-trifluoropropyl)thieno[2,3-d]pyrimidine-2,4(1H,3H)-dione] | 0.026
2 | O=C(c1cc2c(=O)n(CCc3ccccc3)c(=O)n(CCC(F)(F)F)c2s1)N1CCC(O)CC1 [Example 90, 6-[(4-Hydroxypiperidin-1-yl)carbonyl]-3-(2-phenylethyl)-1-(3,3,3-trifluoropropyl)thieno[2,3-d]pyrimidine-2,4(1H,3H)-dione] | 0.44
3 | CC1(O)CCN(C(=O)c2cc3c(=O)n(CCc4ccccc4)c(=O)n(CCC(F)(F)F)c3s2)CC1 [Example 91, 6-[(4-Hydroxy-4-methylpiperidin-1-yl)carbonyl]-3-(2-phenylethyl)-1-(3,3,3-trifluoropropyl)thieno[2,3-d]pyrimidine-2,4(1H,3H)-dione] | 0.26
4 | O=C(c1cc2c(=O)n(CCc3ccccc3)c(=O)n(CCC(F)(F)F)c2s1)N1CCC(O)(CO)CC1 [Example 92, 6-{[4-Hydroxy-4-(hydroxymethyl)piperidin-1-yl]carbonyl}-3-(2-phenylethyl)-1-(3,3,3-trifluoropropyl)thieno[2,3-d]pyrimidine-2,4(1H,3H)-dione] | 0.37
5 | Cc1c(C(=O)N2CCNC(=O)C2)sc2c1c(=O)n(CC(F)(F)c1ccccc1)c(=O)n2CCC(F)(F)F [Example 93, 3-(2,2-Difluoro-2-phenylethyl)-5-methyl-6-[(3-oxopiperazin-1-yl)carbonyl]-1-(3,3,3-trifluoropropyl)thieno[2,3-d]pyrimidine-2,4(1H,3H)-dione] | 0.036
6 | COCCn1c(=O)n(CC(F)(F)c2ccccc2)c(=O)c2c(C)c(C(=O)N3CCNC(=O)C3)sc21 [Example 94, 3-(2,2-Difluoro-2-phenylethyl)-1-(2-methoxyethyl)-5-methyl-6-[(3-oxopiperazin-1-yl)carbonyl]thieno[2,3-d]pyrimidine-2,4(1H,3H)-dione] | 0.49
7 | CCCn1c(=O)c2c(C)c(C(=O)N3CCNC(=O)C3)sc2n(CCC(F)(F)F)c1=O [Example 95, 5-Methyl-6-[(3-oxopiperazin-1-yl)carbonyl]-3-propyl-1-(3,3,3-trifluoropropyl)thieno [2,3-d]pyrimidine-2,4(1H,3H)-dione] | 0.14
8 | CCCn1c(=O)c2c(C)c(C(=O)N3CCNC(=O)C3)sc2n(CCOC(F)(F)F)c1=O [Example 96, 5-Methyl-6-[(3-oxopiperazin-1-yl)carbonyl]-3-propyl-1-[2-(trifluoromethoxy)ethyl]thieno[2,3-d]pyrimidine-2,4(1H,3H)-dione] | 0.065
9 | O=C1CN(C(=O)c2sc3c(c2C(F)F)c(=O)n(CCc2ccccc2)c(=O)n3CCC(F)(F)F)CCN1 [Example 97, 5-(Difluoromethyl)-6-[(3-oxopiperazin-1-yl)carbonyl]-3-(2-phenylethyl)-1-(3,3,3-trifluoropropyl)thieno[2,3-d]pyrimidine-2,4(1H,3H)-dione] | 0.007
10 | CCc1c(C(=O)N2CCNC(=O)C2)sc2c1c(=O)n(CC)c(=O)n2CCC(F)(F)F [Example 98, 3,5-Diethyl-6-[(3-oxopiperazin-1-yl)carbonyl]-1-(3,3,3-trifluoropropyl)thieno[2,3-d]pyrimidine-2,4(1H,3H)-dione] | 0.1
11 | Cc1c(C(=O)N2CCC(O)CC2)sc2c1c(=O)n(CCc1ccccc1)c(=O)n2CCOC(F)(F)F [Example 99, 6-[(4-Hydroxypiperidin-1-yl)carbonyl]-5-methyl-3-(2-phenylethyl)-1-[2-(trifluoromethoxy)ethyl]thieno[2,3-d]pyrimidine-2,4(1H,3H)-dione] | 0.01
12 | Cc1c(C(=O)N2CCC(O)CC2)sc2c1c(=O)n(CCC=C(F)F)c(=O)n2CCC(F)(F)F [Example 106, 3-(4,4-Difluorobut-3-en-1-yl)-6-[(4-hydroxypiperidin-1-yl)carbonyl]-5-methyl-1-(3,3,3-trifluoropropyl)thieno [2,3-d]pyrimidine-2,4(1H,3H)-dione] | 0.019

Continued, values first:

Row | IC50 [µM] | SMILES
13 | 0.0039 | Cc1c(C(=O)N2CCC(C)(O)CC2)sc2c1c(=O)n(CCc1ccccc1)c(=O)n2CCOC(F)(F)F [Example 109, 6-[(4-Hydroxy-4-methylpiperidin-1-yl)carbonyl]-5-methyl-3-(2-phenylethyl)-1-[2-(trifluoromethoxy)ethyl]thieno[2,3-d]pyrimidine-2,4(1H,3H)-dione]
14 | 0.014 | Cc1c(C(=O)N2CCC(O)(CO)CC2)sc2c1c(=O)n(CCc1ccccc1)c(=O)n2CCOC(F)(F)F [Example 110, 6-{[4-Hydroxy-4-(hydroxymethyl)piperidin-1-yl]carbonyl}-5-methyl-3-(2-phenylethyl)-1-[2-(trifluoromethoxy)ethyl]thieno[2,3-d]pyrimidine-2,4(1H,3H)-dione]
15 | 0.004 | CCn1c(=O)c2c(C)c(C(=O)N3CCC(C)(O)CC3)sc2n(CCOC(F)(F)F)c1=O [Example 111, 3-Ethyl-6-[(4-hydroxy-4-methylpiperidin-1-yl)carbonyl]-5-methyl-1-[2-(trifluoromethoxy)ethyl]thieno[2,3-d]pyrimidine-2,4(1H,3H)-dione]
16 | 0.0079 | CCn1c(=O)c2c(C)c(C(=O)N3CCC(O)(CC)CC3)sc2n(CCOC(F)(F)F)c1=O [Example 112, 3-Ethyl-6-[(4-ethyl-4-hydroxypiperidin-1-yl)carbonyl]-5-methyl-1-[2-(trifluoromethoxy)ethyl]thieno[2,3-d]pyrimidine-2,4(1H,3H)-dione]
17 | 0.07 | CCn1c(=O)c2c(C)c(C(=O)N3CCC(O)(CC)CC3)sc2n(CCC(F)(F)F)c1=O [Example 113, 3-Ethyl-6-[(4-ethyl-4-hydroxypiperidin-1-yl)carbonyl]-5-methyl-1-(3,3,3-trifluoropropyl)thieno[2,3-d]pyrimidine-2,4(1H,3H)-dione]
18 | 0.032 | CCn1c(=O)c2c(C(F)F)c(C(=O)N3CCC(O)CC3)sc2n(CCC(F)(F)F)c1=O [Example 122, 5-(Difluoromethyl)-3-ethyl-6-[(4-hydroxypiperidin-1-yl)carbonyl]-1-(3,3,3-trifluoropropyl)thieno[2,3-d]pyrimidine-2,4(1H,3H)-dione]
19 | 0.018 | CCn1c(=O)c2c(C(F)F)c(C(=O)N3CCC(O)CC3)sc2n(CCOC(F)(F)F)c1=O [Example 123, 5-(Difluoromethyl)-3-ethyl-6-[(4-hydroxypiperidin-1-yl)carbonyl]-1-[2-(trifluoromethoxy)ethyl]thieno[2,3-d]pyrimidine-2,4(1H,3H)-dione]
20 | 0.037 | CCn1c(=O)c2c(C(F)F)c(C(=O)N3CCC(C)(O)CC3)sc2n(CCC(F)(F)F)c1=O [Example 124, 5-(Difluoromethyl)-3-ethyl-6-[(4-hydroxy-4-methylpiperidin-1-yl)carbonyl]-1-(3,3,3-trifluoropropyl)thieno[2,3-d]pyrimidine-2,4(1H,3H)-dione]
21 | 0.048 | CCn1c(=O)c2c(C(F)F)c(C(=O)N3CCC(O)(CC)CC3)sc2n(CCC(F)(F)F)c1=O [Example 125, 5-(Difluoromethyl)-3-ethyl-6-[(4-ethyl-4-hydroxypiperidin-1-yl)carbonyl]-1-(3,3,3-trifluoropropyl)thieno[2,3-d]pyrimidine-2,4(1H,3H)-dione]
22 | 0.084 | CCn1c(=O)c2c(C(F)F)c(C(=O)N3CCC(O)(CO)CC3)sc2n(CCC(F)(F)F)c1=O [Example 126]
23 | 0.0095 | CCn1c(=O)c2c(C(F)F)c(C(=O)N3CCC(C)(O)CC3)sc2n(CCOC(F)(F)F)c1=O [Example 127, 5-(Difluoromethyl)-3-ethyl-6-[(4-hydroxy-4-methylpiperidin-1-yl)carbonyl]-1-[2-(trifluoromethoxy)ethyl]thieno[2,3-d]pyrimidine-2,4(1H,3H)-dione]
24 | 0.013 | CCc1c(C(=O)N2CCC(O)(CC)CC2)sc2c1c(=O)n(CC)c(=O)n2CCC(F)(F)F [Example 128, 3,5-Diethyl-6-[(4-ethyl-4-hydroxypiperidin-1-yl)carbonyl]-1-(3,3,3-trifluoropropyl)thieno[2,3-d]pyrimidine-2,4(1H,3H)-dione]
25 | 0.012 | Cc1c(C(=O)N2CCNC(=O)C2)sc2c1c(=O)n(CCc1ccccc1)c(=O)n2CCOC(F)(F)F [Example 129, 5-Methyl-6-[(3-oxopiperazin-1-yl)carbonyl]-3-(2-phenylethyl)-1-[2-(trifluoromethoxy)ethyl]thieno[2,3-d]pyrimidine-2,4(1H,3H)-dione]
26 | 0.009 | CCn1c(=O)c2c(C)c(C(=O)N3CCNC(=O)C3)sc2n(CCOC(F)(F)F)c1=O [Example 130, 3-Ethyl-5-methyl-6-[(3-oxopiperazin-1-yl)carbonyl]-1-[2-(trifluoromethoxy)ethyl]thieno[2,3-d]pyrimidine-2,4(1H,3H)-dione]
27 | 0.034 | CCn1c(=O)c2c(C(F)F)c(C(=O)N3CCNC(=O)C3)sc2n(CCC(F)(F)F)c1=O [Example 131, 5-(Difluoromethyl)-3-ethyl-6-[(3-oxopiperazin-1-yl)carbonyl]-1-(3,3,3-trifluoropropyl)thieno[2,3-d]pyrimidine-2,4(1H,3H)-dione]
28 | 0.36 | CCn1c(=O)c2c(C)c(C(=O)N3CCC(O)CC3)sc2n(CCC(C)C)c1=O [Example 134, 3-Ethyl-6-[(4-hydroxypiperidin-1-yl)carbonyl]-5-methyl-1-(3-methylbutyl)thieno[2,3-d]pyrimidine-2,4(1H,3H)-dione]
29 | 0.094 | CCn1c(=O)c2c(C)c(C(=O)N3CCC(O)CC3)sc2n(CCCC(F)(F)F)c1=O [Example 135, 3-Ethyl-6-[(4-hydroxypiperidin-1-yl)carbonyl]-5-methyl-1-(4,4,4-trifluorobutyl)thieno[2,3-d]pyrimidine-2,4(1H,3H)-dione]
